Assay results reported in patent US7335817B2, “Canola line 45H25” (Pioneer Hi-Bred International, Inc., priority 2005, dated 2008).
“Also recorded” adds a separate entry of the source.

Test system: Canola Variety 45H25
Experiment: Herbicide resistance of canola variety 45H25 at standard recommended application rates
Format: in vivo, Brassica napus
Conditions: for Herbicide resistance (Description): response of variety 45H25 to the herbicide, in words; for Herbicide resistance rating (Mean): scale 0 = not tested, 1 = resistant, variety 45H25
From the text: When preparing the detailed phenotypic information that follows, plants of the new 45H25 variety were observed while growing using conventional agronomic practices. For comparative purposes canola plants of four publicly available canola lines were similarly grown in a three-replication experiment. Based on observations recorded on various morphological traits for the variety 45H25 and comparative check cultivars, variety 45H25 can be described as follow: […]

Row | SMILES | Herbicide resistance (Description) | Herbicide resistance rating (Mean) (5 = tolerant, 9 = susceptible) | Herbicide resistance (Description) (listed as glyphosate) | Herbicide resistance rating (Mean) (2 = tolerant, 3 = susceptible)
1 | CP(=O)(O)CCC(N)C(=O)O (centres unmarked) [Glufosinate] | susceptible | 9.00 | – | –
2 | O=C(O)CNCP(=O)(O)O [Glyphosate] | resistant | – | resistance; also recorded: resistant | 1.00
